Results taken from patent publication US20050222043A1, “Use of proteasome inhibitor in the treatment of fibrotic diseases” (priority 2002, published 2005).
“Also recorded” adds a separate entry of the source. Peptide text beside a SMILES is read from it. * marks the point of attachment. Cbz = O=C(OCc1ccccc1)*

What was measured:
[1] = tested on: collagens Iα1, Iα2 and IIIα1; experiment: Real-time PCR of collagen expression (stated jointly) in cardiac fibroblasts; assay type: cell-based, rat; conditions: primary cardiac fibroblasts, FIG. 2B
Protocol: (§1) Cardiac fibroblasts were prepared from neonatal Wistar rats by plating the non-myocyte fraction of neonatal hearts. The hearts were removed from neonatal rats being 2-3 days old. Ventricular tissue was treated over night at 4° C. with […] trypsin in Hanks-Balanced Salt Saline (HBSS) (Ca^2+- and Mg^2+-free, Invitrogen™, Karlsruhe, Germany) and with collagenase (0,5 mg per ml) in Leibowitz medium (L-15, Invitrogen™, Karlsruhe, Germany) for 45 minutes at 37° C. After washing, the cells were pre-plated at 37° C. for one hour. The adherent cells predominantly were cardiac fibroblasts, which were then further cultivated under standard conditions in standard M199-medium with 10% new-born calf serum, L-glutamine and penicillin-streptomycin (Invitrogen™, Karlsruhe, Germany). In the experiments, we used sub-cultivated fibroblasts of the passages 3-7.
(§2) Total RNA was extracted by means of Trizol reagent (Invitrogen™, Karlsruhe, Germany). In the following, the RNA was subjected to reverse transcription (AMF Reverse Transkriptase, Roche Biochemicals, Mannheim, Germany) and treated with DNase (Ambion, Huntington, UK). […] The relative quantification was performed by means to the comparative CT-method as being described by the manufacturer. […]

[2] = tested on: spontaneously hypertensive rats (SH-rats); experiment: Histological determination of cardiac fibrosis (quantitative morphometry of siriusred-stained left-ventricular sections) in SH-rats; assay type: in vivo, rat; conditions: MG132-treated, FIG. 1B
Protocol: For the pathohistological evaluation, the rat hearts were embedded into paraffin, cut into sections having a thickness of 3 μm, subjected to a haematoxylin-eosin and siriusred staining and analysed as being described in Hocher, B. et al., (1999), Hypertension, 3, 816-822. The degree of heart fibrosis was evaluated by means of quantitative morphometry of the siriusred-stained sections with an image analysis system (Quantimed 500, Image 1.61 program). In this analysis, the ratio of the red-stained tissue (connective tissue) and the total tissue of the section was determined.
Male SH-rats of the same age were obtained from the Jackson Laboratory, Maine, USA. […] The blood pressure was measured weekly by means of the standard tail-cuff method. The blood values and the standard laboratory markers of the renal and hepatic functions were determined 6 weeks after the treatment and at the end of the study by means of standard methods. At the end of the study, the animals were anaesthetised by means of an intraperitoneal injection of a 20% urethane solution (0,9 g per kg body weight) and the left-ventricular pressure parameters were determined as being described by Saragoca, M. et al. (1981) Hypertension, 3, 380-385. […]
The data was determined in the form of mean values ±S.E.M., if not otherwise indicated. […]

[3] = tested on: spontaneously hypertensive rats (SH-rats); experiment: Left-ventricular pressure parameters in SH-rats; assay type: in vivo, rat; conditions: 1 mg/kg daily i.p., 12 weeks
Protocol: (§3) Male SH-rats of the same age were obtained from the Jackson Laboratory, Maine, USA. The animals were maintained according to the international guidelines for the keeping und use of laboratory animals. 6-week-old rats were treated for 12 weeks with MG132 (1 mg per kg body weight), 0,1% DMSO as solvent control or with physiological saline (n=10 per group, daily intraperitoneal injection). The animals were fed with a high salt diet (drinking water with 2% sodium chloride). The blood pressure was measured weekly by means of the standard tail-cuff method. The blood values and the standard laboratory markers of the renal and hepatic functions were determined 6 weeks after the treatment and at the end of the study by means of standard methods. At the end of the study, the animals were anaesthetised by means of an intraperitoneal injection of a 20% urethane solution (0,9 g per kg body weight) and the left-ventricular pressure parameters were determined as being described by Saragoca, M. et al. (1981) Hypertension, 3, 380-385. The organs were withdrawn, weighed and either shock-frozen in liquid nitrogen or embedded in paraffin for the histological analysis. Since no difference was observed between the DMSO-treated and the salt-treated SH-rats in respect to the above mentioned parameters, the DMSO-treated animals served as a control for the MG132-treatment.
(§4) The data was determined in the form of mean values ±S.E.M., if not otherwise indicated. The significance of the differences in the left-ventricular pressure parameters and in the quantification of the heart fibrosis was determined according to Student's T-test. For the cell proliferation test, the significance was determined by comparing the regression coefficients of MG132 in relation to the control group. An error probability of p<0,05 was considered as being significant. The software SPSS 9.0 was used for all statistical calculations.

[4] = tested on: spontaneously hypertensive rats (SH-rats); experiment: Animal study: tolerability, blood pressure, weights, blood values in SH-rats; assay type: in vivo, rat
Protocol: as §3

[5] = tested on: cardiac fibroblasts; experiment: Proliferation test (trypanblue exclusion cell counting); assay type: cell-based, rat; conditions: 0,1 and 1 μM, 10% serum, counted daily for 7 days
Protocol: Cardiac fibroblasts were prepared from neonatal Wistar rats by plating the non-myocyte fraction of neonatal hearts. The hearts were removed from neonatal rats being 2-3 days old. Ventricular tissue was treated over night at 4° C. with […] trypsin in Hanks-Balanced Salt Saline (HBSS) (Ca^2+- and Mg^2+-free, Invitrogen™, Karlsruhe, Germany) and with collagenase (0,5 mg per ml) in Leibowitz medium (L-15, Invitrogen™, Karlsruhe, Germany) for 45 minutes at 37° C. After washing, the cells were pre-plated at 37° C. for one hour. […]
MG132, ALLM and MG262 were purchased at Calbiochem® (San Diego, Calif., USA) and provided as 10 mM DMSO stock solutions. […] The proliferation was determined by counting the living cells in triplicate in daily intervals by means of the trypanblue exclusion test. […]
as §4, with “An error probability of p<0,05 was considered as being significant. The software SPSS 9.0 was used for all statistical calculations.” left out

[6] = tested on: collagen Iα1; experiment: Real-time PCR of collagen Iα1 mRNA in cardiac fibroblasts; assay type: cell-based, rat; conditions: primary cardiac fibroblasts
Protocol: as §1
(§5) Total RNA was extracted by means of Trizol reagent (Invitrogen™, Karlsruhe, Germany). In the following, the RNA was subjected to reverse transcription (AMF Reverse Transkriptase, Roche Biochemicals, Mannheim, Germany) and treated with DNase (Ambion, Huntington, UK). […] The relative quantification was performed by means to the comparative CT-method as being described by the manufacturer.

[7] = tested on: collagen Iα2; experiment: Real-time PCR of collagen Iα2 mRNA in cardiac fibroblasts; assay type: cell-based, rat; conditions: primary cardiac fibroblasts
Protocol: as §1, §5

[8] = tested on: collagen IIIα1; experiment: Real-time PCR of collagen IIIα1 mRNA in cardiac fibroblasts; assay type: cell-based, rat; conditions: primary cardiac fibroblasts
Protocol: as §1, §5

[9] = tested on: MMP2 and MMP9; experiment: Real-time PCR of MMP expression in cardiac fibroblasts; assay type: cell-based, rat; conditions: FIG. 4A
Protocol: as §1, §2

[10] = tested on: NFκB; experiment: Band shift analysis for active NFκB in nuclear extracts of cardiac fibroblasts; assay type: cell-based, rat; conditions: 0,5 μM with IL-1β; not less than 6 hours
Protocol: This was additionally confirmed in band shift analyses with oligonucleotides comprising a NFκB-DNA binding site. For this test, nuclear extracts from cardiac fibroblasts were prepared, which were treated with 0,5 μM MG132 or, respectively, with DMSO (solvent control) in a time course in the presence or absence of IL-1β.

## CSCC[C@@H](C=O)NC(=O)[C@H](CC(C)C)NC(=O)[C@H](CC(C)C)NC(C)=O [ALLM] (Ac-Leu-Leu-Met-aldehyde)
[1]
  effect on collagen expression: no effects

## CC(C)C[C@@H](C=O)NC(=O)[C@H](CC(C)C)NC(=O)[C@H](CC(C)C)NC(=O)OCc1ccccc1 [MG132, Z-Leu-Leu-Leu-al] (Cbz-Leu-Leu-Leu-aldehyde)
[2]
  cardiac fibrosis in heart section (in words): significantly reduced cardiac fibrosis
[3]; 1 mg/kg
  LVEDP compared with control (in words): remarkably reduced pressure level; also recorded: significantly lower
  dp/dtmax compared with control (in words): significantly higher; also recorded: more than twice higher
[3]; mean ± S.E.M.
  left-ventricular end-diastolic (filling) pressure LVEDP: 5±3 mm Hg
  maximal pressure drop rate dp/dtmin: −5046±726 mm Hg/s
[4]; SH-rats, 1 mg per kg daily, 12 weeks
  tolerability of long-term treatment: very well tolerated; also recorded: in general well tolerated
[4]; SH-rats, 1 mg/kg MG132
  Body Weight: 280 ± 15.3 g
[4]; blood samples after 6 weeks and at end of study
  differential blood picture and laboratory markers of kidney or liver side effects: neither changes in the differential blood picture nor a change in the laboratory markers
[5]
  inhibition of proliferation / growth of cardiac fibroblasts: dose-dependent inhibition of proliferation
[6]
  expression of collagen Iα1: unaffected
[7]; FIG. 2B
  expression of collagen Iα2 (in words): dose-dependent and dramatic reduction
[7]; dose-dependent
  down-regulation / inhibition of collagen Iα2 RNA expression: up to 73%
[8]; FIG. 2B
  expression of collagen IIIα1 (in words): dose-dependent and dramatic reduction
[8]; dose-dependent
  down-regulation / inhibition of collagen IIIα1 RNA expression: up to 91%
[9]
  expression of MMP2 and MMP9 under co-stimulation with IL-1β: surprisingly strong reduction
[10]
  effect on IL-1β-induced NFκB activation (band shift): small inhibitory effect

## CC(C)C[C@H](NC(=O)[C@H](CC(C)C)NC(=O)[C@H](CC(C)C)NC(=O)OCc1ccccc1)B(O)O [MG262]
[1]
  effect on collagen expression: inhibited the collagen expression in a comparably effective manner
